Data: patent publication US8247211B2, “Glycopeptide antibiotics” (American Cyanamid Company, priority 2001, dated 2012)
Converted amounts (≈) assume the structure as drawn.

Tests used:
Assay in all cases: In vitro antibacterial evaluation: minimum inhibitory concentration (MIC), broth dilution method
Format in all cases: cell-based
Enterococcus sp. = conditions: 18 hours at 35° C.
Method in brief: (§1)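 MIC read as lowest drug level preventing visible growth. Organisms at 5×10^5 CFU/mL were exposed to a 64-0.06 μg/mL dilution series in Muller-Hinton II […] following NCCLS broth dilution standard M7-A2.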

Escherichia coli = conditions: 18 hours at 35° C.
Method in brief: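 First, organisms are seeded at 5×10^5 CFU/mL into Muller-Hinton II […]. Next, antibiotic is applied across 64-0.06 μg/mL by broth dilution (NCCLS M7-A2). Finally, the lowest inhibitory concentration is recorded as MIC.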

Streptococcus sp. = conditions: 18 hours at 35° C.
Method in brief: as §1

Staphylococcus sp. = tested on: Staphylococcus sp.
Method in brief: as §1

[1] = broth dilution, inoculum 5×10^5 CFU/mL

N=C1NCC(C(O)C2NC(=O)C(CC3CCC(OC4OC(CO)C(OC5OC6COC7(OC6C(O)C5O)C5CC6CC(C5)CC7C6)C(O)C4O)CC3)NC(=O)C(CC3CCCCC3)NC(=O)CNC(=O)C(CO)NC(=O)C(C(O)C3CNC(=N)N3C3OC(CO)C(O)C(O)C3O)NC2=O)N1 (stereo not drawn) [Example 222]
MIC Enterococcus avium (GC 4558) (Enterococcus sp.; Enterococcus avium (GC 4558)): 64 µg/mL (≈ 44.9 µM) | MIC Enterococcus faecalis (ATCC 29212) (Enterococcus sp.; Enterococcus faecalis (ATCC 29212)): >64 µg/mL | MIC Enterococcus faecalis (GC 2242) (Enterococcus sp.; Enterococcus faecalis (GC 2242)): >64 µg/mL | MIC Enterococcus faecalis (GC 2691) (Enterococcus sp.; Enterococcus faecalis (GC 2691)): >64 µg/mL | MIC Enterococcus faecalis (GC 3059) (Enterococcus sp.; Enterococcus faecalis (GC 3059)): >64 µg/mL | MIC Enterococcus faecalis (GC 4552) (Enterococcus sp.; Enterococcus faecalis (GC 4552)): >64 µg/mL | MIC Enterococcus faecalis (GC 4553) (Enterococcus sp.; Enterococcus faecalis (GC 4553)): >64 µg/mL | MIC Enterococcus faecalis (GC 4554) (Enterococcus sp.; Enterococcus faecalis (GC 4554)): >64 µg/mL | MIC Enterococcus faecalis (GC 6189) (Enterococcus sp.; Enterococcus faecalis (GC 6189)): >64 µg/mL | MIC Enterococcus faecium (GC 2243) (Enterococcus sp.; Enterococcus faecium (GC 2243)): >64 µg/mL | MIC Enterococcus faecium (GC 4556) (Enterococcus sp.; Enterococcus faecium (GC 4556)): >64 µg/mL | MIC Enterococcus faecium (GC 4557) (Enterococcus sp.; Enterococcus faecium (GC 4557)): 64 µg/mL (≈ 44.9 µM) | MIC Enterococcus avium (GC 4558) (Enterococcus sp.; [1]): 64 µg/mL (≈ 44.9 µM) | MIC Enterococcus faecalis (ATCC 29212) (Enterococcus sp.; [1]): >64 µg/mL | MIC Enterococcus faecalis (GC 2242) (Enterococcus sp.; [1]): >64 µg/mL | MIC Enterococcus faecalis (GC 2691) (Enterococcus sp.; [1]): >64 µg/mL | MIC Enterococcus faecalis (GC 3059) (Enterococcus sp.; [1]): >64 µg/mL | MIC Enterococcus faecalis (GC 4552) (Enterococcus sp.; [1]): >64 µg/mL | MIC Enterococcus faecalis (GC 4553) (Enterococcus sp.; [1]): >64 µg/mL | MIC Enterococcus faecalis (GC 4554) (Enterococcus sp.; [1]): >64 µg/mL | MIC Enterococcus faecalis (GC 6189) (Enterococcus sp.; [1]): >64 µg/mL | MIC Enterococcus faecium (GC 2243) (Enterococcus sp.; [1]): >64 µg/mL | MIC Enterococcus faecium (GC 4556) (Enterococcus sp.; [1]): >64 µg/mL | MIC Enterococcus faecium (GC 4557) (Enterococcus sp.; [1]): 64 µg/mL (≈ 44.9 µM) | MIC Escherichia coli (ATCC 25922) (Escherichia coli; Escherichia coli (ATCC 25922)): >64 µg/mL | MIC Escherichia coli (GC 4559) (Escherichia coli; Escherichia coli (GC 4559)): >64 µg/mL | MIC Escherichia coli (GC 4560) (Escherichia coli; Escherichia coli (GC 4560)): 64 µg/mL (≈ 44.9 µM) | MIC Streptococcus agalactiae (GC 4564) (Streptococcus sp.; Streptococcus agalactiae (GC 4564)): >64 µg/mL | MIC Streptococcus pneumoniae (ATCC 6301) (Streptococcus sp.; Streptococcus pneumoniae (ATCC 6301)): 64 µg/mL (≈ 44.9 µM) | MIC Streptococcus pneumoniae (GC 1894) (Streptococcus sp.; Streptococcus pneumoniae (GC 1894)): 32 µg/mL (≈ 22.4 µM) | MIC Streptococcus pneumoniae (GC 4565) (Streptococcus sp.; Streptococcus pneumoniae (GC 4565)): 64 µg/mL (≈ 44.9 µM) | MIC Streptococcus pyogenes (GC 4563) (Streptococcus sp.; Streptococcus pyogenes (GC 4563)): 64 µg/mL (≈ 44.9 µM) | MIC Streptococcus agalactiae (GC 4564) (Streptococcus sp.; [1]): >64 µg/mL | MIC Streptococcus pneumoniae (ATCC 6301) (Streptococcus sp.; [1]): 64 µg/mL (≈ 44.9 µM) | MIC Streptococcus pneumoniae (GC 1894) (Streptococcus sp.; [1]): 32 µg/mL (≈ 22.4 µM) | MIC Streptococcus pneumoniae (GC 4565) (Streptococcus sp.; [1]): 64 µg/mL (≈ 44.9 µM) | MIC Streptococcus pyogenes (GC 4563) (Streptococcus sp.; [1]): 64 µg/mL (≈ 44.9 µM) | MIC Staphylococcus aureus (ATCC 29213) (Staphylococcus sp.; strain ATCC 29213): >64 µg/mL | MIC Staphylococcus aureus (GC 1131) (Staphylococcus sp.; strain GC 1131): >64 µg/mL | MIC Staphylococcus aureus (GC 3051) (Staphylococcus sp.; strain GC 3051): >64 µg/mL | MIC Staphylococcus aureus (GC 3053) (Staphylococcus sp.; strain GC 3053): >64 µg/mL | MIC Staphylococcus aureus (GC 4541) (Staphylococcus sp.; strain GC 4541): >64 µg/mL | MIC Staphylococcus aureus (GC 4542) (Staphylococcus sp.; strain GC 4542): >64 µg/mL | MIC Staphylococcus aureus-SMITH (GC 4543) (Staphylococcus sp.; strain GC 4543): >64 µg/mL | MIC Staphylococcus aureus (GC 4544) (Staphylococcus sp.; strain GC 4544): >64 µg/mL | MIC Staphylococcus aureus (GC 4545) (Staphylococcus sp.; strain GC 4545): >64 µg/mL | MIC Staphylococcus haemolyticus (GC 4546) (Staphylococcus sp.; strain GC 4546): >64 µg/mL | MIC Coagulase Negative Staphylococcus (GC 4547) (Staphylococcus sp.; strain GC 4547): >64 µg/mL | MIC Coagulase Negative Staphylococcus (GC 4548) (Staphylococcus sp.; strain GC 4548): >64 µg/mL | MIC Coagulase Negative Staphylococcus (GC 4549) (Staphylococcus sp.; strain GC 4549): >64 µg/mL | MIC Coagulase Negative Staphylococcus (GC 4551) (Staphylococcus sp.; strain GC 4551): >64 µg/mL
